± gives the standard deviation of the averaged measurements.
Experiments:
Assay in all cases: level (log10 ratio to DMSO vehicle control); higher = higher biomarker level / cell amount than vehicle control
[1] = compound: O=S(=O)(O)CCC(F)(F)C(F)(F)C(F)(F)C(F)(F)C(F)(F)C(F)(F)F [6:2 Fluorotelomer sulfonic acid]; conditions: in DMSO
Description: (§1)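 BioMAP Diversity Plus panel of 12 human primary cell co-culture systems (3C, 4H, LPS, SAg, BT, BF4T, BE3C, CASM3C, HDF3CGF, KF3CT, MyoF, Mphg). Compounds were added 1 h before stimulation and left for 24 h (MyoF 48 h; BT 72 h for soluble read-outs or 6 d for IgG). Biomarkers were read by ELISA, cytotoxicity by SRB, PBMC viability and proliferation by Alamar Blue. Each well value was divided by the mean of 8 DMSO control wells on the same plate and log10 transformed; duplicate blinded samples were tested at 4 concentrations.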

[2] = compound: FC(F)(F)C(F)(F)C(F)(F)CC1CO1 [1H,1H-Heptafluorobutyl epoxide]; conditions: in DMSO
Description: as §1

[3] = compound: NS(=O)(=O)C(F)(F)C(F)(F)C(F)(F)C(F)(F)C(F)(F)C(F)(F)F [Perfluorohexanesulfonamide]; conditions: in DMSO
Description: as §1

[4] = compound: O=S(=O)(O)C(F)(F)C(F)(F)C(F)(F)C(F)(F)C(F)(F)C(F)(F)C(F)(F)C(F)(F)C(F)(F)C(F)(F)F [Sodium perfluorodecanesulfonate]; conditions: in DMSO
Description: as §1

[5] = compound: NC(=O)C(F)(F)C(F)(F)C(F)(F)C(F)F; conditions: in DMSO
Description: as §1

Heptafluorobutyl iodide = compound: FC(F)(F)C(F)(F)C(F)(F)CI [Heptafluorobutyl iodide]; conditions: in DMSO
Description: as §1

[6] = compound: O=C(O)C=CC(F)(C(F)(F)F)C(F)(F)F [3-(Perfluoroisopropyl)-2-propenoic acid]; conditions: in DMSO
Description: as §1

[7] = compound: FC(F)(F)C(F)(F)C(F)(F)C(F)(F)C(F)(F)C(F)(F)CC1CO1 [3-(Perfluorohexyl)-1,2-epoxypropane]; conditions: in DMSO
Description: as §1

[8] = compound: O=C(O)C(F)(F)C(F)(F)C(F)(F)C(F)(F)C(F)(F)C(F)(F)C(F)(F)C(F)(F)C(F)(F)C(F)F [11-H-Perfluoroundecanoic acid]; conditions: in DMSO
Description: as §1

[9] = compound: FC(F)(F)C(F)(F)C(F)(F)C(F)(F)C(F)(F)C(F)(F)C(F)(F)I [1-Iodopentadecafluoroheptane]; conditions: in DMSO
Description: as §1

[10] = compound: O=S(=O)(Cl)C(F)(F)C(F)(F)C(F)(F)C(F)(F)C(F)(F)C(F)(F)C(F)(F)C(F)(F)F [Perfluoro-1-octanesulfonyl chloride]; conditions: in DMSO
Description: as §1

[11] = compound: C=CC(=O)OCC(F)(F)C(F)(F)C(F)(F)COC(=O)C=C [1H,1H,5H,5H-Perfluoro-1,5-pentanediol diacrylate]; conditions: 6700 nM; in DMSO
Description: as §1

Octafluoroadipamide = compound: NC(=O)C(F)(F)C(F)(F)C(F)(F)C(F)(F)C(N)=O [Octafluoroadipamide]; conditions: in DMSO
Description: as §1

[12] = compound: FC(F)(F)C(F)(F)CNCC(F)(F)C(F)(F)F [Bis(1H,1H-perfluoropropyl)amine]; conditions: in DMSO
Description: as §1

Hexafluoroamylene glycol = compound: OCC(F)(F)C(F)(F)C(F)(F)CO [Hexafluoroamylene glycol]; conditions: in DMSO
Description: as §1

[13] = compound: C=C(C)C(=O)OCCC(F)(F)C(F)(F)C(F)(F)C(F)(F)C(F)(F)C(F)(F)F [6:2 Fluorotelomer methacrylate]; conditions: in DMSO
Description: as §1

Nonafluoropentanamide = compound: NC(=O)C(F)(F)C(F)(F)C(F)(F)C(F)(F)F [Nonafluoropentanamide]; conditions: in DMSO
Description: as §1

[14] = compound: COC(=O)C(F)(F)C(F)(F)OC(F)(C(F)(F)F)C(F)(F)OC(F)=C(F)F [Methyl perfluoro(3-(1-ethenyloxypropan-2-yloxy)propanoate)]; conditions: in DMSO
Description: as §1

[15] = compound: O=S(=O)(F)C(F)(F)C(F)(F)C(F)(F)C(F)(F)C(F)(F)C(F)(F)C(F)(F)C(F)(F)F [Perfluorooctanesulfonyl fluoride]; conditions: in DMSO
Description: as §1

For SAg:Proliferation, the “level (log10)” value ([1]; 6700 nM) was -0.019 ± 0.027, the “level (log10)” value ([1]; 20000 nM) was -0.0255 ± 0.023 and the “level (log10)” value ([1]; 60000 nM) was -0.0225 ± 0.0035. The “level (log10)” value ([2]; 6700 nM) was -0.0295 ± 0.059, the “level (log10)” value ([2]; 20000 nM) was 0.017 ± 0.059 and the “level (log10)” value ([2]; 60000 nM) was 0.055 ± 0.054. For the same test system, the “level (log10)” value ([3]; 6700 nM) was 0.0045 ± 0.0035, the “level (log10)” value ([3]; 20000 nM) was -0.016 ± 0.013 and the “level (log10)” value ([3]; 60000 nM) was -0.0695 ± 0.019. The “level (log10)” value ([4]; 1500 nM) was -0.0065 ± 0.0035, the “level (log10)” value ([4]; 4400 nM) was -0.006 ± 0.0042 and the “level (log10)” value ([4]; 13000 nM) was -0.024 ± 0.034. For the same test system, the “level (log10)” value ([4]; 40000 nM) was -0.023 ± 0.035, the “level (log10)” value ([5]; 6700 nM) was -0.0135 ± 0.018 and the “level (log10)” value ([5]; 20000 nM) was 0.0105 ± 0.0064. For the same test system, the “level (log10)” value ([5]; 60000 nM) was 0.033 ± 0.018, the “level (log10)” value (Heptafluorobutyl iodide; 6700 nM) was -0.056 ± 0.037 and the “level (log10)” value (Heptafluorobutyl iodide; 20000 nM) was 0.029 ± 0.028. For the same test system, the “level (log10)” value (Heptafluorobutyl iodide; 60000 nM) was -0.072 ± 0.0042, the “level (log10)” value ([6]; 6700 nM) was 0.009 ± 0.016 and the “level (log10)” value ([6]; 20000 nM) was -0.008 ± 0.037. For the same test system, the “level (log10)” value ([6]; 60000 nM) was 0.008 ± 0.04, the “level (log10)” value ([7]; 6700 nM) was 0.013 ± 0.014 and the “level (log10)” value ([7]; 20000 nM) was -0.0105 ± 0.019. The “level (log10)” value ([7]; 60000 nM) was 0.013 ± 0.051, the “level (log10)” value ([8]; 6700 nM) was -0.0145 ± 0.03 and the “level (log10)” value ([8]; 20000 nM) was 0.019 ± 0.0071. For the same test system, the “level (log10)” value ([9]; 6700 nM) was 0.0055 ± 0.043, the “level (log10)” value ([9]; 20000 nM) was -0.0105 ± 0.026 and the “level (log10)” value ([10]; 6700 nM) was 0.0235 ± 0.044. For the same test system, the “level (log10)” value ([10]; 20000 nM) was 0.0205 ± 0.04, the “level (log10)” value ([10]; 60000 nM) was 0.0395 ± 0.036 and the “level (log10)” value [11] was -0.421 ± 0.035. The “level (log10)” value (Octafluoroadipamide; 6700 nM) was 0.022 ± 0.035, the “level (log10)” value (Octafluoroadipamide; 20000 nM) was -0.0255 ± 0.005 and the “level (log10)” value (Octafluoroadipamide; 60000 nM) was 0.033 ± 0.0099. For the same test system, the “level (log10)” value ([12]; 6700 nM) was -0.0275 ± 0.012, the “level (log10)” value ([12]; 20000 nM) was -0.0025 ± 0.052 and the “level (log10)” value ([12]; 60000 nM) was 0.0295 ± 0.076. The “level (log10)” value (Hexafluoroamylene glycol; 6700 nM) was -0.024 ± 0.041, the “level (log10)” value (Hexafluoroamylene glycol; 20000 nM) was -0.0395 ± 0.013 and the “level (log10)” value (Hexafluoroamylene glycol; 60000 nM) was -0.039 ± 0.0042. For the same test system, the “level (log10)” value ([13]; 6700 nM) was -0.027 ± 0.034, the “level (log10)” value ([13]; 20000 nM) was -0.0435 ± 0.042 and the “level (log10)” value ([13]; 60000 nM) was -0.0375 ± 0.03. For the same test system, the “level (log10)” value (Nonafluoropentanamide; 6700 nM) was -0.01 ± 0.052, the “level (log10)” value (Nonafluoropentanamide; 20000 nM) was -0.05 ± 0.034 and the “level (log10)” value (Nonafluoropentanamide; 60000 nM) was -0.0945 ± 0.1. The “level (log10)” value ([14]; 6700 nM) was -0.003 ± 0.018, the “level (log10)” value ([14]; 20000 nM) was 0.0525 ± 0.057 and the “level (log10)” value ([15]; 6700 nM) was -0.0275 ± 0.0035. The “level (log10)” value ([15]; 20000 nM) was -0.0095 ± 0.049 and the “level (log10)” value ([15]; 60000 nM) was 0.0025 ± 0.019.
For LPS:M-CSF, the “level (log10)” value ([1]; 6700 nM) was -0.0045 ± 0.015, the “level (log10)” value ([1]; 20000 nM) was 0.004 ± 0.03 and the “level (log10)” value ([1]; 60000 nM) was 0.0485 ± 0.039. The “level (log10)” value ([2]; 6700 nM) was -0.019 ± 0.02, the “level (log10)” value ([2]; 20000 nM) was 0.0005 ± 0.036 and the “level (log10)” value ([2]; 60000 nM) was 0.0255 ± 0.053. The “level (log10)” value ([3]; 6700 nM) was -0.022 ± 0.016, the “level (log10)” value ([3]; 20000 nM) was -0.0155 ± 0.0021 and the “level (log10)” value ([3]; 60000 nM) was -0.081 ± 0.0057. The “level (log10)” value ([4]; 1500 nM) was 0.0045 ± 0.021, the “level (log10)” value ([4]; 4400 nM) was 0.005 ± 0.0057 and the “level (log10)” value ([4]; 13000 nM) was 0.01 ± 0.027. For the same test system, the “level (log10)” value ([4]; 40000 nM) was -0.006 ± 0.037, the “level (log10)” value ([5]; 6700 nM) was -0.013 ± 0.028 and the “level (log10)” value ([5]; 20000 nM) was -0.011 ± 0.0014. For the same test system, the “level (log10)” value ([5]; 60000 nM) was 0.0065 ± 0.023, the “level (log10)” value (Heptafluorobutyl iodide; 6700 nM) was -0.0225 ± 0.0064 and the “level (log10)” value (Heptafluorobutyl iodide; 20000 nM) was 0.007 ± 0.023. For the same test system, the “level (log10)” value (Heptafluorobutyl iodide; 60000 nM) was 0.0065 ± 0.011, the “level (log10)” value ([6]; 6700 nM) was -0.011 ± 0.041 and the “level (log10)” value ([6]; 20000 nM) was -0.0065 ± 0.0092. The “level (log10)” value ([6]; 60000 nM) was 0.0035 ± 0.0035, the “level (log10)” value ([7]; 6700 nM) was -0.004 ± 0.0099 and the “level (log10)” value ([7]; 20000 nM) was -0.013 ± 0.0028. The “level (log10)” value ([7]; 60000 nM) was 0.0055 ± 0.0035, the “level (log10)” value ([8]; 6700 nM) was -0.0035 ± 0.018 and the “level (log10)” value ([8]; 20000 nM) was 0.012 ± 0.038. The “level (log10)” value ([9]; 6700 nM) was 0.023 ± 0.047, the “level (log10)” value ([9]; 20000 nM) was 0.0155 ± 0.086 and the “level (log10)” value ([10]; 6700 nM) was -0.079 ± 0.045. The “level (log10)” value ([10]; 20000 nM) was -0.0105 ± 0.025, the “level (log10)” value ([10]; 60000 nM) was 0.116 ± 0.035 and the “level (log10)” value [11] was -0.0655 ± 0.026. For the same test system, the “level (log10)” value (Octafluoroadipamide; 6700 nM) was -0.029 ± 0.14, the “level (log10)” value (Octafluoroadipamide; 20000 nM) was 0.0205 ± 0.052 and the “level (log10)” value (Octafluoroadipamide; 60000 nM) was 0.023 ± 0.047. For the same test system, the “level (log10)” value ([12]; 6700 nM) was -0.006 ± 0.083, the “level (log10)” value ([12]; 20000 nM) was -0.0485 ± 0.12 and the “level (log10)” value ([12]; 60000 nM) was -0.0485 ± 0.087. The “level (log10)” value (Hexafluoroamylene glycol; 6700 nM) was -0.0075 ± 0.016, the “level (log10)” value (Hexafluoroamylene glycol; 20000 nM) was 0.0115 ± 0.0078 and the “level (log10)” value (Hexafluoroamylene glycol; 60000 nM) was -0.003 ± 0.035. For the same test system, the “level (log10)” value ([13]; 6700 nM) was 0.0215 ± 0.025, the “level (log10)” value ([13]; 20000 nM) was 0.0305 ± 0.0064 and the “level (log10)” value ([13]; 60000 nM) was 0.0275 ± 0.028. The “level (log10)” value (Nonafluoropentanamide; 6700 nM) was 0.0065 ± 0.07, the “level (log10)” value (Nonafluoropentanamide; 20000 nM) was -0.0075 ± 0.04 and the “level (log10)” value (Nonafluoropentanamide; 60000 nM) was -0.011 ± 0.0042. The “level (log10)” value ([14]; 6700 nM) was -0.0065 ± 0.013, the “level (log10)” value ([14]; 20000 nM) was -0.0105 ± 0.0064 and the “level (log10)” value ([15]; 6700 nM) was -0.005 ± 0.021. For the same test system, the “level (log10)” value ([15]; 20000 nM) was 0.0045 ± 0.0092 and the “level (log10)” value ([15]; 60000 nM) was 0.006 ± 0.017.

Reference: the supplement of paper PMC10331698
